Bounds are passed on as bounds.

One series concerns SFTSV. The experiment in a line: microbe, parasite or virus in culture. The note with it: for EC50: Severe fever with thrombocytopenia syndrome virus, Vero, 72 h, read-out: EC50 (50% effective concentration), anti-SFTSV activity. The format is cell-based, severe fever with thrombocytopenia syndrome virus.
The nature of another series: in vitro. The note with it: monkey.

Regarding `CCN(CC)Cc1cc(Nc2ccnc3cc(Cl)ccc23)ccc1O` [Compound 1, 4-(7-Chloroquinolin-4-ylamino)-2-diethylaminomethylphenol], in the series on SFTSV, the “anti-SFTSV activity (intracellular SFTSV RNA level), in words” value (shortened to “anti-SFTSV activity”) was “selective inhibitor of SFTSV replication” and the EC50 was 19.1 ± 5.1 µM. Besides, the CC50 in “in vitro” is more than 100 µM.
As to `CCN(CC)Cc1cc(Nc2ccnc3cc(F)ccc23)ccc1O` [Compound 2, 4-(7-Fluoroquinolin-4-ylamino)-2-diethylaminomethylphenol], the EC50 in the series with SFTSV stood at 36.6 ± 9.3 µM. Further, the CC50 in “in vitro” was more than 100 µM.
The corresponding values for `CCN(CC)Cc1cc(Nc2ccnc3cc(Br)ccc23)ccc1O` [Compound 3, 4-(7-Bromoquinolin-4-ylamino)-2-diethylaminomethylphenol] are 31.1 ± 16.8 µM and more than 100 µM.
For `CCN(CC)Cc1cc(Nc2ccnc3cc(I)ccc23)ccc1O` [Compound 4, 4-(7-Iodoquinolin-4-ylamino)-2-diethylaminomethylphenol], the EC50 in the series with SFTSV worked out at 15.6 ± 4.9 µM. In addition, the CC50 in “in vitro” was more than 100 µM.
As for `NC(=O)c1nc(F)c[nH]c1=O` [Favipiravir], in the series on SFTSV, the “anti-SFTSV activity” value is given as “reduced the intracellular SFTSV RNA level in a dose-dependent manner” and the EC50 came to 25 ± 9.3 µM. The “viability of mock-infected Vero cells” value in the series with Vero cells is listed as “did not reduce the viability”. For the same compound, in “in vitro”, the CC50 is more than 100 µM.
On to `NC(=O)c1ncn([C@@H]2O[C@H](CO)[C@@H](O)[C@H]2O)n1` [Ribavirin], for which, in the series with SFTSV, the “anti-SFTSV activity” value is recorded as “reduced the intracellular SFTSV RNA level in a dose-dependent manner” and the EC50 came out at 40.1 ± 16.3 µM. In addition, the “viability of mock-infected Vero cells” value in the series on Vero cells is “did not reduce the viability”. The compound also came in with a CC50 in “in vitro” of more than 100 µM.

Values taken from publication PMC5890513 (Antiviral Chemistry & Chemotherapy, 2017).
